Laboratory results: the CheMixHub viscosity set

Experiment: xn = mol fraction of the nth substance listed

CC(C)CCC[C@@H](C)[C@H]1CC[C@H]2[C@@H]3CC=C4C[C@@H](O)CC[C@]4(C)[C@H]3CC[C@]12C + Cc1ccccc1
viscosity [mPa·s], 101.33 kPa
Settings	x1 = 0.0038	x1 = 0.00638	x1 = 0.01075	x1 = 0.01353	x1 = 0.01707	x1 = 0.02159	x1 = 0.02737	x1 = 0.03485
298 K	0.567	0.579	0.604	0.616	0.639	0.672	0.716	0.787
303 K	0.534	0.546	0.569	0.579	0.599	0.628	0.668	0.731
313 K	0.478	0.488	0.508	0.515	0.533	0.556	0.591	0.64
323 K	0.432	0.44	0.458	0.464	0.476	0.497	0.523	0.562

CCCCCCCCCCO + Cc1ccccc1
viscosity [mPa·s], 101 kPa
Settings	298.15 K	308.15 K
x2 = 0.0507	10.3	7.108
x2 = 0.1015	9.101	6.203
x2 = 0.1473	8.207	5.499
x2 = 0.2091	7.146	4.673
x2 = 0.2577	6.303	4.079
x2 = 0.3006	5.584	3.647
x2 = 0.3496	4.913	3.173
x2 = 0.4028	4.195	2.786
x2 = 0.4516	3.678	2.398
x2 = 0.4989	3.222	2.122
x2 = 0.5497	2.797	1.832
x2 = 0.6009	2.439	1.569
x2 = 0.6498	2.13	1.393
x2 = 0.7065	1.819	1.159
x2 = 0.7524	1.537	1.047
x2 = 0.8069	1.308	0.858
x2 = 0.8472	1.071	0.798
x2 = 0.9063	0.807	0.687
x2 = 0.953	0.608	0.585

CC(C)CCC[C@@H](C)[C@H]1CC[C@H]2[C@@H]3CC=C4C[C@@H](O)CC[C@]4(C)[C@H]3CC[C@]12C + ClC(Cl)(Cl)Cl
viscosity [mPa·s], 101.33 kPa
Settings	x1 = 0.0058	x1 = 0.00978	x1 = 0.0123	x1 = 0.01552	x1 = 0.01963	x1 = 0.02491	x1 = 0.03174
298 K	0.983	1.04	1.077	1.136	1.219	1.328	1.491
303 K	0.912	0.962	0.996	1.045	1.12	1.212	1.355
313 K	0.797	0.836	0.858	0.898	0.953	1.024	1.134
323 K	0.705	0.738	0.753	0.785	0.826	0.881	0.96

COCCOCCO + ClC(Cl)=C(Cl)Cl
298.15 K, 101.33 kPa
Settings	viscosity [mPa·s]
x1 = 0.0072	0.852
x1 = 0.0147	0.859
x1 = 0.0261	0.869
x1 = 0.0417	0.884
x1 = 0.0604	0.911
x1 = 0.0868	0.948
x1 = 0.1038	0.975
x1 = 0.1347	1.023
x1 = 0.1769	1.092
x1 = 0.2025	1.139
x1 = 0.2433	1.216
x1 = 0.2755	1.279
x1 = 0.3041	1.34
x1 = 0.3353	1.413
x1 = 0.374	1.504
x1 = 0.4127	1.596
x1 = 0.4577	1.712
x1 = 0.4877	1.796
x1 = 0.5213	1.9
x1 = 0.5632	2.03
x1 = 0.5988	2.14
x1 = 0.6333	2.253
x1 = 0.6701	2.366
x1 = 0.7061	2.48
x1 = 0.7414	2.593
x1 = 0.7892	2.754
x1 = 0.8427	2.948
x1 = 0.8844	3.109
x1 = 0.9138	3.225
x1 = 0.9381	3.323
x1 = 0.9613	3.414
x1 = 0.978	3.478
x2 = 0.0115	3.521

CC(C)CCC[C@@H](C)[C@H]1CC[C@H]2[C@@H]3CC=C4C[C@@H](O)CC[C@]4(C)[C@H]3CC[C@]12C + ClC(Cl)Cl
viscosity [mPa·s], 101.33 kPa
Settings	x1 = 0.00286	x1 = 0.0048	x1 = 0.0081	x1 = 0.0138	x1 = 0.01748	x1 = 0.0223	x1 = 0.02849	x1 = 0.03663
298 K	0.557	0.57	0.594	0.638	0.667	0.709	0.766	0.848
303 K	0.534	0.547	0.568	0.608	0.635	0.673	0.724	0.798
313 K	0.494	0.504	0.522	0.555	0.578	0.609	0.652	0.712
323 K	0.459	0.468	0.483	0.511	0.529	0.555	0.589	0.637

c1ccc(Oc2ccccc2)cc1 + ClC(Cl)Cl
298.15 K, 101 kPa
Settings	viscosity [mPa·s]
x1 = 0.3136	2.22
x1 = 0.5696	1.39
x1 = 0.817	0.83
